Data as given in US5164381A, “Pharmacologically active 1,5-diaryl-3-substituted pyrazoles and method for synthesizing the same” (Ortho Pharmaceutical Corporation, priority 1991, dated 1992).
Where a name gives a salt, the structure may show the parent alone.

Test system: Lewis strain laboratory rats
Assay: In vivo alleviation of inflammation: polyarthritis (adjuvant, Mycobacterium butyricum) in rats, inhibition of paw volume increase
Details: po, rat; for inhibition in vivo at 25 mg/kg: 25 mpk p.o.; for inhibition in vivo at 10 mg/kg: 10 mpk p.o.; for inhibition in vivo at 15 mg/kg: 15 mpk p.o.; for inhibition in vivo at 40 mg/kg: 40 mpk p.o.; for inhibition in vivo at 50 mg/kg: 50 mpk p.o.
Description: Polyarthritis was induced in Lewis strain laboratory rats (weight=about 200 grams) by injection of a suspension of Mycobacterium butyricum in mineral oil into the subplantar tissue of the mammal's hind paws. On day 10 after the injection, the rats were assigned to groups, and paw volumes and body weights were recorded. Paw volumes of the contralateral, uninjected hind paw were determined by mercury plethylsmography. Per oral (p.o.) dosing began and continued for five consecutive days thereafter. On day 14 after the initial injection, approximately four hours after the final dose was administered, paw volumes and body weights were recorded and quantitated.
Anti-inflammatory activity of the substituted pyrazole compounds is expressed as the percent inhibition of paw volume increase.

[1] = 336 h, read-out: % INH. p.o. (percentage inhibition of pad swelling)

COc1ccc(-n2nc(CCC(=O)Nc3ccc(O)cc3)cc2-c2ccc(Cl)cc2)cc1 [Compound 34]
inhibition in vivo at 25 mg/kg [1]: 21%

COc1ccc(-n2nc(CCCN(O)C(=O)c3ccccc3)cc2-c2ccc(Cl)cc2)cc1 [Compound 155]
inhibition in vivo at 10 mg/kg [1]: 45%

COc1ccc(-n2nc(CCC(=O)O)cc2-c2ccc(C)c(C)c2)cc1 [Compound 107]
inhibition in vivo at 10 mg/kg [1]: 30%

CCOC(=O)C(CSC)NC(=O)CCc1cc(-c2ccc(Cl)cc2)n(-c2ccc(OC)cc2)n1 (centres unmarked) [Compound 101]
inhibition in vivo at 15 mg/kg [1]: 57%

COc1ccc(-n2nc(CCC(=O)N(O)C(C)C)cc2-c2ccc(Cl)cc2)cc1 [Compound 81, 3-[5-(4-chlorophenyl)-1-(4-methoxyphenyl)-3-pyrazolyl]-N-hydroxy-N-isopropylpropanamide]
inhibition in vivo at 15 mg/kg [1]: 50%

COc1ccc(-n2nc(CCC(=O)N(O)C3CCCCC3)cc2-c2ccc(Cl)cc2)cc1 [Compound 82, 3-[5-(4-chlorophenyl)-1-(4-methoxyphenyl)-3-pyrazolyl]-N-cyclohexyl-N-hydroxypropanamide]
inhibition in vivo at 15 mg/kg [1]: 54%

COc1ccc(-n2nc(CCC(=O)N(C)O)cc2-c2ccccc2)cc1 [Compound 114]
inhibition in vivo at 15 mg/kg [1]: 5%

COc1ccc(-n2nc(CCC=NNc3nccs3)cc2-c2ccc(Cl)cc2)cc1 [Compound 174]
inhibition in vivo at 15 mg/kg [1]: 37%

CCOC(=O)CCc1cc(-c2ccc(Cl)cc2)n(-c2ccc(OCC)cc2)n1 [Compound 75]
inhibition in vivo at 40 mg/kg [1]: 73%

COc1ccc(-n2nc(CCC(=O)N(C)O)cc2-c2ccc(Cl)cc2)cc1 [Compound 3a, 3-[5-(4-Chlorophenyl)-1-(4-methoxyphenyl)-3-pyrazolyl] -N-hydroxy-N-methylpropanamide sodium salt monohydrate]
inhibition in vivo at 10 mg/kg [1]: 65%

COc1ccc(-n2nc(CCC(=O)N(C)O)cc2-c2ccccc2C)cc1 [Compound 118]
inhibition in vivo at 10 mg/kg [1]: 6%

COc1ccc(-n2nc(CCCNC(=O)C(=O)NO)cc2-c2ccc(Cl)cc2)cc1 [Compound 164]
inhibition in vivo at 15 mg/kg [1]: 13%

CCOc1ccc(-n2nc(CCC(=O)N(C)O)cc2-c2ccc(Cl)cc2)cc1 [Compound 76]
inhibition in vivo at 15 mg/kg [1]: 43%

COc1ccccc1-n1nc(CCCO)cc1-c1ccc(Cl)cc1 [Compound 22]
inhibition in vivo at 50 mg/kg [1]: 33%

COc1ccc(-n2nc(CCNC(=O)C(=O)NO)cc2-c2ccc(Cl)cc2)cc1 [Compound 165]
inhibition in vivo at 15 mg/kg [1]: 41%

COc1ccc(-n2nc(CCC(=O)NCC(=O)O)cc2-c2ccc(Cl)cc2)cc1 [Compound 66, N-Carboxymethyl-3-[5-(4-chlorophenyl)-1-(4-methoxyphenyl)-3-pyrazolyl]propanamide]
inhibition in vivo at 25 mg/kg [1]: 62%

COc1ccc(-n2nc(CCC(=O)NO)c(Br)c2-c2ccc(Cl)cc2)cc1 [Compound 150]
inhibition in vivo at 15 mg/kg [1]: 70%

COc1ccc(-n2nc(CCC(=O)Nc3nnn[nH]3)cc2-c2ccc(Cl)cc2)cc1 [Compound 90]
inhibition in vivo at 15 mg/kg [1]: 32%

COc1ccccc1-n1nc(CCC(=O)N(C)O)cc1-c1ccc(Cl)cc1 [Compound 104]
inhibition in vivo at 15 mg/kg [1]: 39%

CCN(O)C(=O)CCc1cc(-c2ccc(Cl)cc2)n(-c2ccc(OC)cc2)n1 [Compound 83, 3-[5-(4-chlorophenyl)-1-(4-methoxyphenyl)-3-pyrazolyl]-N-ethyl-N-hydroxypropanamide]
inhibition in vivo at 15 mg/kg [1]: 42%

COc1ccc(-n2nc(CCC(=O)O)cc2-c2ccc(C)cc2)cc1 [Compound 105]
inhibition in vivo at 10 mg/kg [1]: 87%

CC(=O)OCCCc1cc(-c2ccc(Cl)cc2)n(-c2ccccc2)n1 [Compound 7, 3-(3-Acetoxypropyl)-5-(4-chlorophenyl)-1-phenylpyrazole]
inhibition in vivo at 50 mg/kg [1]: 54%

COc1ccc(-n2nc(CCCN(O)C(=O)C(C)(C)C)cc2-c2ccc(Cl)cc2)cc1 [Compound 153]
inhibition in vivo at 10 mg/kg [1]: 49%

COc1ccc(-n2nc(CCC(=O)N(C)OC(=O)C(C)(C)C)cc2-c2ccc(Cl)cc2)cc1 [Compound 141]
inhibition in vivo at 10 mg/kg [1]: 17%

CCc1ccc(-c2cc(CCC(=O)N(C)O)nn2-c2ccc(OC)cc2)cc1 [Compound 119]
inhibition in vivo at 10 mg/kg [1]: 24%

COc1ccc(-n2nc(CCC(O)C(C)(C)C)cc2-c2ccc(Cl)cc2)cc1 (centres unmarked) [Compound 179]
inhibition in vivo at 10 mg/kg [1]: 36%

CCC(O)CCc1cc(-c2ccc(Cl)cc2)n(-c2ccc(OC)cc2)n1 (centres unmarked) [Compound 177]
inhibition in vivo at 15 mg/kg [1]: 16%

CCCCCCCCN(O)C(=O)CCc1cc(-c2ccc(Cl)cc2)n(-c2ccc(OC)cc2)n1 [Compound 146]
inhibition in vivo at 10 mg/kg [1]: 29%

COc1ccc(-n2nc(CCC(=O)NC3=NCCS3)cc2-c2ccc(Cl)cc2)cc1 [Compound 85]
inhibition in vivo at 40 mg/kg [1]: 40%

COc1ccc(-n2nc(CCC(=O)N(O)c3ccccc3)cc2-c2ccc(Cl)cc2)cc1 [Compound 84, 3-[5-(4-chlorophenyl)-1-(4-methoxyphenyl)-3-pyrazolyl]-N-hydroxy-N-phenylpropanamide]
inhibition in vivo at 40 mg/kg [1]: 27%

COc1ccc(-n2nc(CCC(O)c3ccccc3)cc2-c2ccc(Cl)cc2)cc1 (centres unmarked) [Compound 178]
inhibition in vivo at 15 mg/kg [1]: 8%

CCOC(=O)C(CS)NC(=O)CCc1cc(-c2ccc(Cl)cc2)n(-c2ccc(OC)cc2)n1 (centres unmarked) [Compound 100]
inhibition in vivo at 15 mg/kg [1]: 58%

CCN(CC)OC(=O)CCc1cc(-c2ccc(Cl)cc2)n(-c2ccc(OC)cc2)n1 [Compound 102]
inhibition in vivo at 30 mg/kg (336 h, 30 mpk p.o., read-out: % INH. p.o. (percentage inhibition of pad swelling)): 87%

COc1ccc(-n2nc(CCCO)cc2-c2ccc(-c3ccccc3)cc2)cc1 [Compound 54]
inhibition in vivo at 25 mg/kg [1]: 36%

COc1ccc(-n2nc(CCC(=O)O)cc2-c2ccc(Cl)cc2)cc1OC [Compound 74]
inhibition in vivo at 40 mg/kg [1]: 17%

COc1ccc(-n2nc(CCCOC(=O)CC(C)=O)cc2-c2ccc(Cl)cc2)cc1 [Compound 59, 3-(3-Acetoacetoxypropyl)-5-(4-chlorophenyl)-1-(4-methoxyphenyl) pyrazole]
inhibition in vivo at 20 mg/kg (336 h, 20 mpk p.o., read-out: % INH. p.o. (percentage inhibition of pad swelling)): 48%

COC(=O)c1ccc(/C=C/CCc2cc(-c3ccc(Cl)cc3)n(-c3ccc(OC)cc3)n2)cc1 [Compound 25, 3-[4-(4-Carbomethoxyphenyl)-3(E)-butenyl]-5-(4-chlorophenyl)-1-(4-methoxyphenyl) pyrazole]
inhibition in vivo at 25 mg/kg [1]: 18%

COc1ccc(-n2nc(CCC(=O)N(C)O)cc2-c2ccc(C(F)(F)F)cc2)cc1 [Compound 79]
ED50 (Rattus norvegicus, read-out: ED50 (effective dose to obtain a 50% inhibition of inflammation)): 3.2 mg/kg

COc1ccc(-n2nc(CCC(=O)NCC(=O)NO)cc2-c2ccc(Cl)cc2)cc1 [Compound 88]
inhibition in vivo at 15 mg/kg [1]: 36%

COc1ccc(-n2nc(CCC(=NNc3nccs3)c3ccccc3)cc2-c2ccc(Cl)cc2)cc1 [Compound 176]
inhibition in vivo at 15 mg/kg [1]: 6%

COc1ccc(-n2nc(CCC(=O)O)c(Br)c2-c2ccc(Cl)cc2)cc1 [Compound 147, 3-[4-Bromo-5-(4-Chlorophenyl)-1-(4-methoxyphenyl)-3-pyrazolyl]-propionic acid]
inhibition in vivo at 15 mg/kg [1]: 79%

CCOC(=O)C(C)N(O)C(=O)CCc1cc(-c2ccc(Cl)cc2)n(-c2ccc(OC)cc2)n1 (centres unmarked) [Compound 144]
inhibition in vivo at 10 mg/kg [1]: 55%

COc1ccc(-n2nc(CCC(C)=O)cc2-c2ccc(Cl)cc2)cc1 [Compound 23, 5-(4-Chlorophenyl)-1-(4-methoxyphenyl)-3-(3-oxobutyl)pyrazole]
inhibition in vivo at 40 mg/kg [1]: 53%

COc1ccc(-n2nc(CCC(=O)ONC(C)(C)C)cc2-c2ccc(Cl)cc2)cc1 [Compound 57, 0-[2-[5-(4-Chlorophenyl)-1-(4-methoxyphenyl)-3-pyrazolyl]ethylcarbonyl]-N-tert-butylhydroxylamine]
inhibition in vivo at 25 mg/kg [1]: 87%
